Measured values reported in article PMC3499469, “Structural Insight into Inhibitor of Apoptosis Proteins Recognition by a Potent Divalent Smac-Mimetic” (PLoS ONE, 2012).

Biological target: T1, cIAP2-BIR3 (Homo sapiens, UniProt Q13489)
T1 construct: gene BIRC3; BIR3 domain, residues 245-357 as printed (jointly with cIAP1), C-terminal 6xHis-tag, pET21(b), E. coli BL21(DE3)
Test: fluorescence polarization displacement of fluorescent probe FITC-SMAC
Conditions: read-out: Fluorescence Binding Assays IC50 [nM] / cIAP2-BIR3
Text: fluorescence polarization displacement of fluorescent probe FITC-SMAC on cIAP2-BIR3

T1 sequence (Q13489 245-357): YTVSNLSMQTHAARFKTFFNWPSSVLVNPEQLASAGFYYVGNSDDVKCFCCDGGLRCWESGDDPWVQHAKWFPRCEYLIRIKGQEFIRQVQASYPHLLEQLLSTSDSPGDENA

Structure (SMILES): CC[C@H](NC)C(=O)N[C@@H]1C(=O)N2[C@@H](CC[C@@H]1CO)CC[C@H]2C(=O)N[C@@H](c1ccccc1)c1cn(CCCCc2ccc(CCCCn3cc([C@@H](NC(=O)[C@@H]4CC[C@@H]5CC[C@H](CO)[C@H](NC(=O)[C@H](CC)NC)C(=O)N54)c4ccccc4)nn3)cc2)nn1 [9a]
- IC50: 1.9 ± 0.9 nM
